Read-outs that look alike come from different tables or passages of the source. Where a SMILES comes first, the peptide text is derived from it.
What was measured:
[1] = system: P. aeruginosa strain PAO1
[2] = system: P. aeruginosa strain PA14
[3] = Table 2, broth microdilution in MH medium, 37 °C, 16 h, MTT and OD600, triplicate
[4] = Table S5, altered linking region between peptide and cephalosporin

**Q.** C[C@@H]1NC(=O)[C@H](Cc2c[nH]c3ccccc23)NC(=O)[C@H](CCCCN)NC(=O)[C@@H](NC(=O)[C@@H](N)Cc2ccccc2)CSCCc2cc(nc(NCCCC(=O)N3CCN(c4cc5c(cc4F)c(=O)c(C(=O)O)cn5C4CC4)CC3)n2)CCSC[C@@H](C(=O)N[C@@H](CCCCN)C(=O)N[C@@H](CCCCN)C(N)=O)NC(=O)[C@H](Cc2c[nH]c3ccccc23)NC(=O)[C@H](CCCCN)NC(=O)[C@H](Cc2ccccc2)NC1=O [P2-12] (HELM PEPTIDE1{F.C.K.W.A.F.K.W.C.K.K.[am]}|CHEM1{[O=C(O)c1cn(C2CC2)c2cc(N3CCN(C(=O)CCCNc4nc(CC[*:1])cc(CC[*:2])n4)CC3)c(F)cc2c1=O]}$PEPTIDE1,CHEM1,2:R3-1:R1|PEPTIDE1,CHEM1,9:R3-1:R2$$$V2.0) was tested. Which “MIC for PAO1” value [1, 3] did it give?
**A.** > 64 µg/mL

**Q.** And the “MIC for PA14” value [2, 3]?
**A.** > 64 µg/mL

**Q.** What does the source list for C[C@@H]1NC(=O)[C@H](Cc2c[nH]c3ccccc23)NC(=O)[C@H](CCCCN)NC(=O)[C@@H](NC(=O)[C@@H](N)Cc2ccccc2)CSCCc2cc(nc(NCCCC(=O)NCCCCCC(=O)N[C@@H]3C(=O)N4C(C(=O)O)=C(COC(=O)N5CCN(c6cc7c(cc6F)c(=O)c(C(=O)O)cn7C6CC6)CC5)CS[C@H]34)n2)CCSC[C@@H](C(=O)N[C@@H](CCCCN)C(=O)N[C@@H](CCCCN)C(N)=O)NC(=O)[C@H](Cc2c[nH]c3ccccc23)NC(=O)[C@H](CCCCN)NC(=O)[C@H](Cc2ccccc2)NC1=O [P2-20]?
**A.** PAO1 MIC ([1]; PAO1, 18 h): 13 µM; PAO1 MIC [1, 4]: 32 µg/mL; PA14 MIC ([2]; PA14, 18 h): 13 µM; PA14 MIC ([2]; Table S5): 32 µg/mL

**Q.** With C[C@@H]1NC(=O)[C@H](Cc2c[nH]c3ccccc23)NC(=O)[C@H](CCCCN)NC(=O)[C@@H](NC(=O)[C@@H](N)Cc2ccccc2)CSCCc2cc(nc(NCCCC(=O)N[C@@H](C(=O)N[C@@H]3C(=O)N4C(C(=O)O)=C(COC(=O)N5CCN(c6cc7c(cc6F)c(=O)c(C(=O)O)cn7C6CC6)CC5)CS[C@H]34)c3ccccc3)n2)CCSC[C@@H](C(=O)N[C@@H](CCCCN)C(=O)N[C@@H](CCCCN)C(N)=O)NC(=O)[C@H](Cc2c[nH]c3ccccc23)NC(=O)[C@H](CCCCN)NC(=O)[C@H](Cc2ccccc2)NC1=O [P2-21] as the molecule, how does the “PAO1 MIC” value ([1]; PAO1, 18 h) read?
**A.** 27 µM

**Q.** What about the “PAO1 MIC” value [1, 4] of the same molecule?
**A.** 64 µg/mL

**Q.** And the “PA14 MIC” value ([2]; PA14, 18 h)?
**A.** 13 µM

**Q.** What about the “PA14 MIC” value ([2]; Table S5) of the same molecule?
**A.** 32 µg/mL

**Q.** With CC(=O)OCC1=C(C(=O)O)N2C(=O)[C@@H](NC(=O)CCCNc3nc4cc(n3)CCSC[C@H](N)C(=O)N[C@@H](C)C(=O)N[C@@H](CCCCN)C(=O)N[C@@H](Cc3c[nH]c5ccccc35)C(=O)N[C@@H](C)C(=O)N[C@@H](Cc3ccccc3)C(=O)N[C@@H](CCCCN)C(=O)N[C@H](C(=O)N[C@@H](CC(C)C)C(=O)N[C@@H](CCCCN)C(=O)N[C@@H](CCCCN)C(N)=O)CSCC4)[C@H]2SC1 [P8-8] as the molecule, how does the “PAO1 MIC” value ([1]; PAO1, 18 h) read?
**A.** > 35 µM

**Q.** What about the “PA14 MIC” value ([2]; PA14, 18 h) of the same molecule?
**A.** > 35 µM

**Q.** For CC(=O)OCC1=C(C(=O)O)N2C(=O)[C@@H](NC(=O)CCCNc3nc4cc(n3)CCSC[C@H](NC(=O)[C@H](Cc3c[nH]c5ccccc35)NC(=O)[C@H](CCCCN)NC(=O)[C@H](C)NC(=O)[C@@H](N)Cc3ccccc3)C(=O)N[C@@H](Cc3ccccc3)C(=O)N[C@@H](CCCCN)C(=O)N[C@@H](Cc3c[nH]c5ccccc35)C(=O)N[C@@H](CC(C)C)C(=O)N[C@@H](CCCCN)C(=O)N[C@@H](CCCCN)C(=O)N[C@H](C(N)=O)CSCC4)[C@H]2SC1 [P9-8], which “PAO1 MIC” value ([1]; PAO1, 18 h) is on record?
**A.** > 31 µM

**Q.** What about the “PA14 MIC” value ([2]; PA14, 18 h) of the same molecule?
**A.** 31 µM

**Q.** Which results are given for CC(=O)OCC1=C(C(=O)O)N2C(=O)[C@@H](NC(=O)CCCNc3nc4cc(n3)CCSC[C@H](NC(=O)[C@H](CCCCN)NC(=O)[C@H](C)NC(=O)[C@@H](N)Cc3ccccc3)C(=O)N[C@@H](C)C(=O)N[C@@H](Cc3ccccc3)C(=O)N[C@@H](CCCCN)C(=O)N[C@@H](Cc3c[nH]c5ccccc35)C(=O)N[C@@H](CC(C)C)C(=O)N[C@@H](CCCCN)C(=O)N[C@H](C(N)=O)CSCC4)[C@H]2SC1 [P10-8]?
**A.** PAO1 MIC ([1]; PAO1, 18 h): > 35 µM; PA14 MIC ([2]; PA14, 18 h): > 35 µM

Reference: article PMC12447755, “β-Lactamase cleavable antimicrobial peptide–drug conjugates” (Chemical Science, 2025)
